From US10722505B2, “Substituted 2,4 diamino-quinoline as new anticancer agents” (GENOSCIENCE PHARMA, priority 2014, dated 2020)
Counter-ions that a name gives are not always drawn.

Legend:
[1] = test system: CPP30 liver metastatic CRC patient-derived cells; assay: CellTiter-Glo growth inhibition, liver metastatic CRC patient-derived cells CPP30; type: cell-based; settings: Homo sapiens; CPP30, 72 h
From the text: Patient derived liver metastasis cells (CPP19, 30, 36 and CPP45—see table 1 for clinical descriptions) were maintained in complete DMEM (Gibco) with 10% FBS. Cells were obtained from biopsies provided by CHU-Caremeau (Nimes, France) within an approved protocol. Signed informed consents were obtained from patients prior to samples acquisition in accordance with all ethical and legal aspects. Tumors were washed, minced into fragments (<2 mm^3) and digested with liberase H (0.26 U/mL, Roche) resuspended in Accumax (Sigma-Aldrich). After 2 hours at 37° C., cell suspension was filtered through a […] to obtain a single cell suspension and plated in DMEM medium, supplemented with FBS, glutamine, antibiotics and non-essential aminoacids. When a monolayer of patient-derived tumor cells was formed, cells were detached using trypsin/EDTA and resuspended in DMEM with 10% FBS (for adherent cells) or defined M11 media (for sphere formation). Cells were cultured in a humidified atmosphere at 37° C. and 5% CO2.
Cells were plated at 10^4 cells per well in P96 well plates in DMEM with 10% FBS. After 24 hours, cells were treated with compound 2-3 and cell viability was assessed 72 h post-treatment by CellTiter-Glo® Luminescent Cell Viability Assay (Promega). EC50 were calculated using GraphPad Prism Software v6 (Graphpad Software, Inc La Jolla, Calif.). […]

[2] = test system: LI1098 HCC patient derived cells; assay: CellTiter-Glo growth inhibition, HCC patient-derived cells LI1098; type: cell-based, human; settings: Homo sapiens; LI1098, 72 hours
Method: The patient derived Hepatocellular Carcinoma (HCC) cells were maintained in medium respectively described in table 15 containing 1% penicillin-streptomycin (Life Technologies, 15070-063), with a supplements for primary cell culture (PCS) containing hydrocortisone (50 nM), Epidermal Growth Factor (20 ng/ml), β-fibroblast Growth Factor (10 ng/ml), Heparin (2 μg/ml) ITS liquid media supplement (1×) and non-essential amino acid (NEAA, 0.01 mM, 1×). The primary cell were cultured in a humidified atmosphere (95% relative humidity) with 5% CO2 at 37° C.
The cell growth inhibition assay was performed as described previously in example 5 using the CellTiter-Glo® luminescent cell viability assay as described by the manufacturer (Promega, Ref G7571). The number of cells seeded per well (in 96-Well Flat Clear Bottom Black Polystyrene TC-Treated Microplates, Cat #3340, Corning®) is described in the table 16. A backseal black sticker (Cat #6005189, Perkin Elmer) was placed to the bottom of each plate before recording CellTiter-Glo® luminescence.
The experimental data are analyzed using a computer program, Graphpad Prism V 5.0 (GraphPad Software, Inc. La Jolla, Calif.) and EC50 values were determined as the dose of compound required to reduce absorbance values to 50% of the signal obtained for vehicle treated cell cultures and were a mean of at least three independent experiments.

- EC50 [2]: 7 µM
SMILES: CC(C)(C)NC1CCN(c2cc(NCc3ccc(Cl)cc3)nc3ccccc23)CC1 [Compound 2-3, 2-(4-chlorobenzylamino)-4-(4-tert-butylaminopiperidin-1-yl)-quinoline hydrochloride salt]
- EC50 [1]: 1.22 µM
